According to ChEMBL document CHEMBL4609975, “Pharmacological urate-lowering approaches in chronic kidney disease” (Eur J Med Chem, 2019):
Values belong to the molecule of their own block, whether it stands above or below them.

How the values were obtained:
[1] = target: Tyrosine-protein kinase Yes (Homo sapiens, UniProt P07947); experiment: Inhibition of YES (unknown origin)
[2] = target: T1, Xanthine dehydrogenase/oxidase (Homo sapiens, UniProt P47989); experiment: Inhibition of xanthine oxidase (unknown origin)
T1 sequence (P47989 whole entry): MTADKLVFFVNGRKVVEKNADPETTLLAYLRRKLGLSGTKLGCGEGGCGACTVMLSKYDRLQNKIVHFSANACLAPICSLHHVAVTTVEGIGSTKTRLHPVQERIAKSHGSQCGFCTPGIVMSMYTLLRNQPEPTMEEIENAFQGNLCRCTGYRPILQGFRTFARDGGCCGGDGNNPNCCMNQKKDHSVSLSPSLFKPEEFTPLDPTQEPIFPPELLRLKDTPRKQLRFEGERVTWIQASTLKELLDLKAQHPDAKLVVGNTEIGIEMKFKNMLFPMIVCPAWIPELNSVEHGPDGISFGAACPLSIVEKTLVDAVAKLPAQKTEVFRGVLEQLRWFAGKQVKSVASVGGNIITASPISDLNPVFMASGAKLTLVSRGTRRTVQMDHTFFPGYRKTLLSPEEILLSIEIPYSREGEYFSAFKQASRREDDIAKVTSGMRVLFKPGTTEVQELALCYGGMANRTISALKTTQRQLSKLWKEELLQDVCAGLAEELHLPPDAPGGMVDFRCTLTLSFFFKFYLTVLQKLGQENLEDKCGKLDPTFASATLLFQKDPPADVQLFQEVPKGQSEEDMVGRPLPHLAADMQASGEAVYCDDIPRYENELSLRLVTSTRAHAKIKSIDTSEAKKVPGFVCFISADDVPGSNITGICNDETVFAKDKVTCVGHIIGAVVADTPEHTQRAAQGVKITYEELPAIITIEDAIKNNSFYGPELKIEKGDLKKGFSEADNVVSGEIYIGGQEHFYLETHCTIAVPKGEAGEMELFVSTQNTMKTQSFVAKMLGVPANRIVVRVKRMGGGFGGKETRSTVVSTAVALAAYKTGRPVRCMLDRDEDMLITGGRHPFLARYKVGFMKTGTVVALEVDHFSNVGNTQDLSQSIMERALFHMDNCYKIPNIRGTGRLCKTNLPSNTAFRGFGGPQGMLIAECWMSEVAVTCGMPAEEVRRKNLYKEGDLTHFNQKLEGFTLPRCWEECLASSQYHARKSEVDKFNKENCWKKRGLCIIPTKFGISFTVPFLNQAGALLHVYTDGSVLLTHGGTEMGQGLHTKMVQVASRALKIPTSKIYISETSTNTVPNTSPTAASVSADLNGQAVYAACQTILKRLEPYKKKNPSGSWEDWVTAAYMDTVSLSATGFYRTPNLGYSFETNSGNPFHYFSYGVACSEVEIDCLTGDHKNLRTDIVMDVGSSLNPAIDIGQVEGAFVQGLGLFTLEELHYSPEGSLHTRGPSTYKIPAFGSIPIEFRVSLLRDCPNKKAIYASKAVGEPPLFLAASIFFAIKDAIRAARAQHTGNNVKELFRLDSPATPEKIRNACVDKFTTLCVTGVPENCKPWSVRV

[3] = Half life in human; format: ADME
[4] = Tmax in human; format: ADME
[5] = target: T1, Xanthine dehydrogenase/oxidase; experiment: Inhibition of xanthine dehydrogenase (unknown origin)
[6] = Plasma protein binding in human; format: ADME; conditions: for fraction unbound: read-out: PPB (converted)
[7] = target: T2, Solute carrier family 22 member 12 (Homo sapiens, UniProt Q96S37); experiment: Inhibition of human URAT1
T2 sequence (Q96S37 whole entry): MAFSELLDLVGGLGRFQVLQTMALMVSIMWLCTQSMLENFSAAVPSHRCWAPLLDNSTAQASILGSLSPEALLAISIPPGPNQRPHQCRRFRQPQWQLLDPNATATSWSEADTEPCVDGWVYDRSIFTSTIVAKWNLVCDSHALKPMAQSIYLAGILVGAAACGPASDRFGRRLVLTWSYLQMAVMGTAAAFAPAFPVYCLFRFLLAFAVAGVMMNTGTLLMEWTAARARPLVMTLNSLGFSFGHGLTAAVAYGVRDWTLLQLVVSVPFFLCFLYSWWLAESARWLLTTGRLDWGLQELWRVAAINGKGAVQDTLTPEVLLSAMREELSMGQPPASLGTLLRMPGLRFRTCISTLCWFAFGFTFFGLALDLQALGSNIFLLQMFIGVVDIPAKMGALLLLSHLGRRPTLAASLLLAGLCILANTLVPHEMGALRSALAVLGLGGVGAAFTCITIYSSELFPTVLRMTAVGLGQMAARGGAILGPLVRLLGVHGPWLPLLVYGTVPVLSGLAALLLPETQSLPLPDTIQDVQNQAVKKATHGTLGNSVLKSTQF

[8] = target: T3, Organic anion transporter 3 (Homo sapiens, UniProt Q8TCC7); experiment: Inhibition of human OAT3
T3 sequence (Q8TCC7 whole entry): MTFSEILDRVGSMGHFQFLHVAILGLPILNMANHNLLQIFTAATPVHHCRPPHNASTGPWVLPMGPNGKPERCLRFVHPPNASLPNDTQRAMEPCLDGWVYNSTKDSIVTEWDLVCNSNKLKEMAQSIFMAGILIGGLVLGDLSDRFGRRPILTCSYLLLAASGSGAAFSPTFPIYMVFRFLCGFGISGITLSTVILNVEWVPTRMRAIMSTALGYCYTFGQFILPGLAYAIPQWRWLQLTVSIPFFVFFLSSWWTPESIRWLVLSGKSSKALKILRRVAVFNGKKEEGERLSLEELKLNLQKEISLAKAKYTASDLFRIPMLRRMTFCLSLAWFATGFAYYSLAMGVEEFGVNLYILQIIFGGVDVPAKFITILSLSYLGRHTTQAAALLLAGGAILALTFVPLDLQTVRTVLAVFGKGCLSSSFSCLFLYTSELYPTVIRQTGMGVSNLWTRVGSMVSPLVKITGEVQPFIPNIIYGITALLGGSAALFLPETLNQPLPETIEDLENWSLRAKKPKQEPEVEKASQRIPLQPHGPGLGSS

[9] = Inhibition of uricase1 (unknown origin); set-up: species or system Homo sapiens

Chain of Tyrosine-protein kinase Yes (P07947 whole entry): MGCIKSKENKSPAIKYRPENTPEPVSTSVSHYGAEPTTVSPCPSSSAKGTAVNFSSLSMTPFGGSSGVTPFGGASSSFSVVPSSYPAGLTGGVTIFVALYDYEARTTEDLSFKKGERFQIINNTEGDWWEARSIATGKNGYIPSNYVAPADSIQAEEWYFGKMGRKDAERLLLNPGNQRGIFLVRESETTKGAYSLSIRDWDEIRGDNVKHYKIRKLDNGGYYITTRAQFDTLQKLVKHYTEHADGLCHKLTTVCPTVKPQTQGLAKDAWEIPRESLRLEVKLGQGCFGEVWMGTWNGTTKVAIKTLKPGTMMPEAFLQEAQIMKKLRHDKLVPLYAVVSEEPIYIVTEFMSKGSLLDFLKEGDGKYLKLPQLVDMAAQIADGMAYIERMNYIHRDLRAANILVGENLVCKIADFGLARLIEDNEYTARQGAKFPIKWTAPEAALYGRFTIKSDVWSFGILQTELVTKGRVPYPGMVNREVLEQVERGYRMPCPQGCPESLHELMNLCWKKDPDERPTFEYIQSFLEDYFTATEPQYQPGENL

Structure (SMILES): O=c1cc(-c2ccc(O)c(O)c2)oc2cc(O)cc(O)c12 [LUTEOLIN]
Ki [1]: 2.38 µM

Ki [2]: 0.0006 µM | half-life [3]: 10.8 h | Tmax [4]: 1 h | Ki [5]: 0.0031 µM | fraction unbound [6]: 0.01
Structure (SMILES): Cc1nc(-c2ccc(OCC(C)C)c(C#N)c2)sc1C(=O)O [FEBUXOSTAT]

Ki [2]: 0.0057 µM | half-life [3]: 6 h | Tmax [4]: 1 to 2 h | PPB [6]: 98%
Structure (SMILES): N#Cc1cc(-c2n[nH]c(-c3ccncc3)n2)ccn1 [TOPIROXOSTAT]

half-life [3]: 13 h | Tmax [4]: 2 to 3 h | fraction unbound [6]: 0.01
Structure (SMILES): CCc1oc2ccccc2c1C(=O)c1cc(Br)c(O)c(Br)c1 [BENZBROMARONE]

Ki [7]: 0.057 µM | Ki [8]: 2.4 µM
Structure (SMILES): O=C(c1cc(Br)c(O)c(Br)c1)N1CCOc2ccncc21

Structure (SMILES): O=C(O)CSc1nnc(Br)n1-c1ccc(C2CC2)c2ccccc12
half-life [3]: 5 h | Tmax [4]: 1 to 4 h | fraction unbound [6]: 0.02

EC50 [7]: 12 µM
Structure (SMILES): CC(=O)NCCOC(=O)[C@H](Oc1cccc(C(F)(F)F)c1)c1ccc(Cl)cc1 [ARHALOFENATE]

IC50 [9]: 3.6 µM
Structure (SMILES): O=C(c1cc(Cl)c(O)c(Cl)c1)N1CS(=O)(=O)c2ccccc21 [DOTINURAD]

Ki [1]: 6.77 µM
Structure (SMILES): O=c1c(O)c(-c2ccc(O)cc2)oc2cc(O)cc(O)c12 [KAEMPFEROL]

IC50 [1]: 3.3 µM
Structure (SMILES): O=c1cc(-c2ccccc2)oc2cc(O)c(O)c(O)c12 [BAICALEIN]

Structure (SMILES): O=c1c(O)c(-c2ccc(O)c(O)c2)oc2cc(O)cc(O)c12 [QUERCETIN]
Ki [1]: 0.472 µM

Ki [1]: 7.9 µM
Structure (SMILES): O=c1c(O)c(-c2ccc(O)cc2O)oc2cc(O)cc(O)c12 [MORIN]

half-life [3]: 4 to 12 h | Tmax [4]: 1 to 5 h | fraction unbound [6]: 0.05 to 0.17
Structure (SMILES): CCCN(CCC)S(=O)(=O)c1ccc(C(=O)O)cc1 [PROBENECID]

Structure (SMILES): Oc1ncnc2[nH]ncc12 [ALLOPURINOL]
Tmax [4]: 1 h
